According to US20050124618A1, “Methods of modulating angiogenesis and cancer cell proliferation” (priority 2003, published 2005):
“Also recorded” adds a separate entry of the source.

Tests used:
20-HETE [1] = test: 20-HETE formation in electrically stimulated skeletal (TA) muscle of rats; assay type: in vivo, rat; conditions: 7 days of electrical stimulation; chronic treatment
Description: (§1) Experimental protocols and tissue preparation: After a 24-h recovery period, the implanted stimulator was activated by momentary closure of the magnetic reed switch using a small hand-held magnet. […] Contractions of the extensor digitorum longus (EDL) and tibialis anterior (TA) muscles were automatically initiated at 9 AM each day and sustained for 8 h/day over a consecutive 7-day period. At the end of the stimulation period, the animals were euthanized by an overdose of pentobarbital sodium (100 mg/kg ip), and the EDL and TA muscles were harvested for analysis as previously described (Greene A S et al., Hypertension 15: 779-783, 1990; and Parmentier J H et al., Hypertension 37: 623-629, 2001).
The rats were divided in four groups. […] This dose was chosen based on our previous results (Kehl F et al., Am J Physiol Heart Circ Physiol 282: H1556-H1565, 2002).
To determine the contribution of VEGF to the angiogenesis induced by electrical stimulation, six rats in group 3 were treated with 3 mg/kg ip injections of a monoclonal VEGF-neutralizing antibody (Texas Biotechnology; Houston, Tex.) during the period of electrical stimulation. The protocol for administration of VEGF-neutralizing antibody was modified from Zheng W et al. (Circ Res 85: 192-198, 1999), and this dose was based on our previous results (Amaral S L et al., Microcirculation 8: 57-67, 2001). After the stimulation period was started, the rats received intraperitoneal injections on days 3, 5, and 7 (0.6 mg/100 g).
Muscle preparations for measurement of 20-HETE: The 100-200 mg of frozen TA muscle were homogenized in a solution containing 1 ml of acidified water and 50 μl of an internal standard, WIT-002, which was synthesized and kindly provided by Taisho Pharmaceutical. Ethyl acetate (3 ml, Fisher Scientific; Pittsburgh, Pa.) was added to the mixture and gently vortexed. The homogenized tissues were then centrifuged at 3,000 revolutions/min for 2 min. With the use of a glass Pasteur pipet, the top layer was removed and transferred to a sterile glass vial, and the samples were dried under nitrogen and stored at −80° C.
Labeling of samples and fluorescent detection of 20-HETE: Detection of 20-HETE was performed as previously described (Ma Y H et al., Am J Physiol Regul Integr Comp Physiol 267: R579-R589, 1994). Samples, which were extracted and dried under argon, were resuspended in 20 μl of acetonitrile containing 36.4 mM 2-(2,3-napthalimino)ethyl trifluoromethanesulfonate, and N,N-diisopropylethylamine (10 μl) was added as a catalyst. The sample was reacted for 30 min at room temperature, dried under argon, resuspended in 1 ml of 40% acetonitrile-water, and applied to a Sep-Pak Vac column. The column was washed with 6 ml of 50% acetonitrile-water solution to remove unreacted dye, eluted with 500 μl of ethyl acetate, dried under argon, and resuspended in 100 μl of the HPLC mobile phase [methanol-water-acetic acid, 82:18:0.1 (vol/vol)]. A 25-μl aliquot of the derivatized sample was separated on a 4.6×250-mm Symmetry C18 reverse-phase HPLC column (Waters) isocratically at a rate of 1.3 ml/min using methanol-water-acetic acid (82:18:0.1 (vol/vol)) as the mobile phase. Fluorescence intensity monitored using an in-line fluorescence detector (model number L-7480, Hitachi; Naperville, Ill.) at medium gain sensitivity. The amount of 20-HETE in the sample was determined by comparing the area of the 20-HETE peak with that of the internal standard (WIT-002).

[2] = tested on: extensor digitorum longus (EDL) and tibialis anterior (TA) muscles; test: Vessel density of EDL and TA muscles after 7 days of electrical stimulation; assay type: in vivo, rat
Description: as §1
Tissue harvest and morphological analysis of vessel density: The stimulated and contralateral muscles were removed, weighed, and rinsed in physiological salt solution. A 300-mg sample was taken from the rostral portion of the TA muscle and frozen in liquid nitrogen for Western blot (100 mg) and HPLC (200 mg) analysis for measurement of VEGF protein expression and 20-HETE formation, respectively. The remaining TA and EDL muscles were lightly fixed in a 0.25% formalin solution overnight. The muscles were sectioned via a manual microtome to a thickness of about 100 μm by securing the tendons and slicing parallel to the longitudinal orientation of the muscle fibers. From every animal, two slices of each EDL muscle and three slices of each TA muscle were made. The slices were than immersed for 2 h in a solution of 25 μg/ml rhodamine-labeled Griffonia simplicifolia I (GS-I) lectin (Sigma; St. Louis, Mo. (Greene A S et al., Hypertension 15: 779-783, 1990)). Immediately after this 2-h exposure to GS-I lectin, the muscles were rinsed in physiological solution. The rinsing procedure was repeated after 15 and 30 min, and the muscles were rinsed in physiological saline solution for 12 h (overnight, at 4° C.). On the next day, the slices were mounted on microscope slides with a water-soluble mounting medium consisting of toluene and acrylic resin (SP ACCU-MOUNT 280, Baxter Scientific).
The labeled sections were visualized using a video fluorescent microscope system (Olympus ULWD CD Plan, ×20 objective, 1.6 cm working distance and 0.4 numerical aperture) with epi-illumination, as previously described (Parmentier J H et al., Hypertension 37: 623-629, 2001). In the present study, 10-15 and 20-25 representative fields were selected for study from each EDL and TA muscle slice, respectively. Each field was converted to a digitized image (DT2801 Data Translation; Marlboro, Mass.) and stored as an 8-bit/pixel image file with a resolution of 512×512 pixels. Morphometric analysis of the scanned histochemical sections was done as previously described (Parmentier J H et al., Hypertension 37: 623-629, 2001).
Data analysis and statistics: For each muscle, the vessel counts of all the selected fields (10-15 scans×2 slices for each EDL muscle; 20-25 scans×3 slices for each TA muscle) were averaged to a single vessel density. Vessel density was expressed in terms of the mean number of vessel-grid intersections per microscope field (0.224 mm^2). For each experimental group, the measured vessel density and 20-HETE formation of the stimulated muscle was compared with its unstimulated counterpart as well as with age-matched controls. All values are presented as means±SE. The significance of differences in values measured in the same animal was evaluated using a two-factor ANOVA (drug×stimulation) with repeated measures on one factor (stimulation). Significant differences were further investigated using a post hoc test (Tukey's).

VEGF = test: Western blot of VEGF protein expression in TA muscle; assay type: in vivo, rat
Description: Western blot analysis to detect the presence of VEGF protein: The 100-mg TA muscle specimens were homogenized, and the protein was suspended in potassium buffer (10 mM). Five micrograms of protein (as determined by a protein assay kit, Bio-Rad; Hercules, Calif.) from the TA and a tumor cell line known to express VEGF at high levels (C6, American Type Culture Collection, 107-CCL) were separated on a 12% denaturing polyacrylamide gel. The gels were transferred to a nitrocellulose membrane, which was blocked overnight in 5% nonfat dry milk diluted in Tris-buffered saline (50 mM Tris and 750 mM NaCl, pH 8) with 0.08% Tween 20 (Bio-Rad). The blots were then incubated with a […] antibody to a peptide derived from the human VEGF sequence (1:1,000 dilution, clone G143-850, Pharmingen) for 2 h at room temperature. Washed blots were then incubated with goat anti-mouse secondary antibody at a dilution of 1:1,000 for 1 h at room temperature and then subjected to a SuperSignal West Dura chemiluminescence substrate (Pierce; Rockford, Ill.) detection system. Membranes were exposed to X-ray film (Fuji Medical; Stamford, Conn.) for 15 to 30 s and developed using a Kodak M35 X-Omat processor. For the quantitative VEGF analysis, film was always exposed for a period of time that ensured that all signals were within the linear range of the detection of the film. The VEGF band intensity was quantified using a morphometry imaging system (Metamorph, Universal Imaging; West Chester, Pa.), and values are expressed as a percentage of the C6 tumor cell standard.

20-HETE [3] = conditions: cited from earlier work
[4] = chronic treatment, 7 days electrical stimulation

Nn1nnc2ccccc21 [ABT, 1-aminobenzotriazole]
effect on the increase of 20-HETE formation induced by electrical stimulation (20-HETE [1]): blocked
effect on the increase in vessel density (angiogenesis) induced by electrical stimulation ([2]; 7 days, HET0016 2 mg kg−1 day−1, ABT 50 mg kg−1 day−1): blocked; also recorded: attenuated
vessel density, EDL, unstimulated side ([2]; chronic treatment, 7 days): 111±7.4 number of vessel intersections
vessel density, TA, unstimulated side ([2]; chronic treatment, 7 days): 99.7±4.72 number of vessel intersections
vessel density, EDL, stimulated side [2, 4]: 121±4.35 number of vessel intersections
vessel density, TA, stimulated side [2, 4]: 119.5±4.51 number of vessel intersections
effect on increases in VEGF protein expression induced by electrical stimulation (VEGF; 7 days stimulation): did not block
effect on baseline VEGF expression (VEGF; 7 days treatment): Neither HET0016 nor ABT had any effect
ability to reduce 20-HETE levels in vivo (20-HETE [3]): reduce 20-HETE levels in vivo
